# Experimental data: patent US20140288113A1, “Extended Release Compositions Comprising Hydrocodone And Acetaminophen For Rapid Onset And Prolonged Analgesia That May Be Administered Without Regard To Food” (MALLINCKRODT LLC, priority 2013, published 2014)
# Assays:
# hepatic GSH [1] = experiment: Hepatic glutathione depletion after acetaminophen in Swiss mice (Brzeznicka and Piotrowski 1989); format: in vivo
# Text: The bioequivalence level is 95%.
# hepatic GSH [2] = settings: mice, cited from earlier work
smiles,measurement,setting,value
CC(=O)Nc1ccc(O)cc1 [acetaminophen],"safety exposure ratio compared with human levels (1.3 g/day, 70 kg)",hepatic GSH [1]; Swiss mice 400 mg/kg,22 fold
same,"safety exposure ratio compared with human levels (1.3 g/day, 70 kg)",hepatic GSH [1]; Swiss mice 600 mg/kg,32 fold
same,time after administration at which circulating hepatic GSH changes began,hepatic GSH [2]; 100 mg/kg to 600 mg/kg,≤ 15 min
same,time after injection of minimum GSH level,hepatic GSH [2]; all dose groups,2 h
